Results: patent US12016905B2, “Pharmaceutical composition for prevention or treatment of preterm birth” (KOREA UNIVERSITY RESEARCH AND BUSINESS FOUNDATION, priority 2019, dated 2024)
Entries after “also recorded” stand apart in the source; their conditions may differ.

Assays:
cervix of C57BL/6 mice = assay: M/C ratio (α-SMA/type I collagen, Western blot) in cervical tissue after cervical excision and 3 weeks of drug administration; format: in vivo, mouse
Protocol: Sexually mature female C57BL/6 mice were used for experiments in vivo. The laboratory was maintained at a constant temperature (22 to 24° C.) with a 12-hour day/night cycle. Partial cervical tissue excision was performed at each 5-week old. Specifically, each mouse was anesthetized by inhalation of 2 to 4% isoflurane, and then the cervix thereof was grasped by using forceps, and an excision was made to a depth of 1 mm using a scalpel. In order to minimize bleeding after excision, each mouse was compressed to stop bleeding. The length of the cervix was 2.5 mm, about 40% of the cervix was excised, and the average weight of the excised tissues was 7 mg.
At the same time as the cervical tissue excision, liquid fibronectin, and SB-431542 dissolved in DMSO were injected into the cervix through the vagina using a feeding needle.
Liquid into the fibronectin (plasma) was infused cervix through the vagina daily for 3 weeks at each dose of 20 mg and 0.2 mg (20 mg, diluted 10 times, expressed as FN (X10)). SB-431542 was dissolved in 5% DMSO, and infused into the cervix through the vagina daily for 3 weeks at each dosage of 20 mg and 0.2 mg (20 mg, diluted 10 times, indicated as SB-431542 (X10). After the drug treatment for 3 weeks, samples were obtained from the proximal cervix and distal cervix regions divided in the cervical tissue (see FIG. 13).
The protein extraction method for confirming the expression of α-SMA and type I collagen (Collagen I) was as follows. After an RIPA buffer (RIPA lysis buffer, 150 mM NaCl, 1% Triton X-100, 1% SD, 0.1% SDS, 50 mM Tris-13 HCl, 2 mM EDTA) and protease inhibitor cocktail (GenDEPOT, P3100-005) were mixed, 100 ul of the mixture was added to separate cervical tissue in each region and pulverized using a homogenizer. After the pulverized product was left on ice for 40 minutes, centrifugation was performed for 15 minutes using a centrifuge (13,000 rpm, 4 degrees). Only the supernatant was used after storage in a new tube. Protein quantification was carried out by a Bradford method (Protein assay dye reagent concentrate buffer, BioRad).
Western blot method for confirming the expression of α-SMA and type I collagen was as follows. The extracted protein was loaded on a 10% SDS PAGE gel at 5 μg each and transferred to a nitrocellulose membrane. After blocking with 5% skim milk, α-smooth muscle actin antibody (1:1000, NSJ Bioreagents, V2001) as the primary antibodies, and type I collagen antibody (1:500, Abcam, ab88147), GAPDH (1:1000, Santa Cruz, sc376559) were reacted at 4° ° C.overnight, and anti-mouse IgG (CellNest, USA) as a secondary antibody was added thereto and reacted for 1 hour at room temperature, and then was developed and detected by using an ECL kit (SuperSignal West Pico PLUS Chemiluminescent Substrate, Thermo Scientific).
For oral administration (PO), the drug was administered to the esophagus through the mouth using a feeding needle at the same time as the cervical tissue excision. SB-431542 was dissolved in 5% DMSO and injected in an amount of 10 mg/kg with each 100 ul for 3 weeks.
For intraperitoneal infusion (IP), the drug was administered intraperitoneally using an insulin syringe at the same time as the cervical tissue excision. SB-431542 was dissolved in 5% DMSO and infused in an amount of 10 mg/kg with each 100 ul for 3 weeks.

[1] = test system: fibroblasts isolated from cervical cells of a mouse; assay: Western blot of α-SMA and type I collagen in cervical fibroblasts treated with TGF-β1; format: cell-based
[2] = test system: fibroblasts isolated from cervical cells of a mouse; assay: as above; format: cell-based; remark: listed apart in the source
Protocol: (§1) The experiment process will be described with reference to FIG. 5. Cells were isolated from the cervixes of 4- to 6-week old C57BL/6 mice and subjected to primary cell culture in 60 mm dishes (step p0). After step […] is performed by culturing for 12 to 15 days, the number of fibroblasts was measured, and fibroblasts were seeded in a 6 well dish at a density of about 0.3×10^6 cells/dish, followed by secondary culture (step p2). After 1 day from the secondary culture, it was treated for 2 hours in a serum-free medium, and then treated with 10 ng/ml of TGF-β1 per dish to induce differentiation into myofibroblasts, and experimental group was treated with SB-431542, which is a TGF-1 inhibitor, at each concentration of 0, 2, 8 and 16
UM. Two days after drug treatment, cells were washed with 10× phosphate buffered saline (PBS; Affymetrix), and proteins were extracted with RIPA buffer. Western blot was performed to investigate the expression levels of α-SMA, a marker of myofibroblasts, and COLI, a marker of collagen.
As the primary antibodies, α-smooth muscle actin (1:1000) and type I collagen (1:500) antibody were reacted at 4° C. overnight, and as the secondary antibody, anti-mouse IgG (CellNest, USA) was added thereto and was detected after the reaction for 1 hour at room temperature.

[3] = test system: fibroblasts isolated from cervical cells of a mouse; assay: Immunofluorescence staining for α-SMA protein in cervical fibroblasts treated with TGF-β1; format: cell-based; conditions: treated simultaneously with TGF-β1 and SB-431542
Protocol: as §1

[4] = test system: fibroblasts isolated from cervical cells of a mouse; assay: mRNA expression level of α-SMA in cervical fibroblasts treated with TGF-β1; format: cell-based; conditions: 8 μM SB-431542 with TGF-β1
Protocol: as §1

[5] = intravaginal, 0.2 mg (X10) daily for 3 weeks, versus cervical excision group
[6] = intravaginal, 20 mg daily for 3 weeks, versus cervical excision group
[7] = plasma fibronectin 2 μg/cm2 per well together with TGF-β1

In the case of “plasma fibronectin: fibronectin bovine plasma product purchased from Sigma-Aldrich; polypeptide of SEQ ID NO: 1”, the M/C ratio (cervix of C57BL/6 mice; [5]) is reported as “decreased”, the M/C ratio (cervix of C57BL/6 mice; [6]) is reported as “decreased” and the collagen expression [1, 7] is reported as “slightly decreased”. The “expression level of α-SMA” value [1, 7] was “decreased as much as in the control group” and the “ratio of α-SMA/collagen 1” value [1, 7] was “reduced”.

With “TGF-β1: transforming growth factor beta1, used to induce differentiation of fibroblasts into myofibroblasts” the “collagen 1 expression” value ([2]; TGF-β1 10 ng/ml) was “no effect” and the “expression level of α-SMA” value ([2]; TGF-β1 alone, 10 ng/ml) was “increased”.

With “tenascin-C: drug used for wound treatment, purchased from EMD-Millipore” the “increase in α-SMA expression by TGF-β1” value ([1]; 2 μg/ml tenascin-C with TGF-β1) was “slightly inhibited”.

chondroitin sulfate was tested, and the “increase in α-SMA expression by TGF-β1” value ([1]; 50 μg/ml chondroitin sulfate with TGF-β1) was “slightly inhibited”.

In the case of `NC(=O)c1ccc(-c2nc(-c3ccc4c(c3)OCO4)c(-c3ccccn3)[nH]2)cc1` [SB-431542, 4-(5-benzol [1,3]dioxol-5-yl-4-pyrldin-2-yl-1H-imidazol-2-yl)-benzamide], the “fluorescence detection of α-SMA” value [3] is reported as “reduced”, the M/C ratio (cervix of C57BL/6 mice; intraperitoneal, 10 mg/kg daily for 3 weeks) is reported as “lower than that of the cervical excision group” and the M/C ratio (cervix of C57BL/6 mice; [5]) is reported as “no significant change”. For the same molecule, the M/C ratio (cervix of C57BL/6 mice; [6]) was “no significant change”, the M/C ratio (cervix of C57BL/6 mice; oral administration, 10 mg/kg daily for 3 weeks) was “lower than that of the cervical excision group” and the “mRNA expression level of α-SMA” value [4] was “no significant change”. The “expression of α-SMA protein” value ([2]; 8 μM SB-431542 with 10 ng/ml TGF-β1, two days after treatment) was “decreased; also recorded: significantly reduced” and the “collagen 1 expression” value ([2]; SB-431542 with TGF-β1) was “no effect”.

B1: TGF-β3: drug used for wound treatment, purchased from Sigma-Aldrich (protein, UniProt P10600 301-412, looked up)
Transforming growth factor …: ALDTNYCFRNLEENCCVRPLYIDFRQDLGWKWVHEPKGYYANFCSGPCPYLRSADTTHSTVLGLYNTLNPEASASPCCVPQDLEPLTILYYVGRTPKVEQLSNMVVKSCKCS
modifications: Transforming growth factor beta-3
notes: drug used for wound treatment, purchased from Sigma-Aldrich
For B1, the “increase in α-SMA expression by TGF-β1” value ([1]; 10 μg/ml TGF-β3 with TGF-β1) was “slightly inhibited”.
